IC50, Activity and Ratio data for 11 compounds are collected here from ChEMBL document CHEMBL3091394, “Novel tacrine-ebselen hybrids with improved cholinesterase inhibitory, hydrogen peroxide and peroxynitrite scavenging activity” (Bioorg Med Chem Lett, 2013).

One data set deals with Cholinesterase (Equus caballus, UniProt P81908).
Data set [1] addresses Acetylcholinesterase (Electrophorus electricus, UniProt O42275).
Description: Inhibition of electric eel AChE using acetylthiocholine chloride as substrate preincubated for 15 mins by Ellman's method
Data set [2] is described as follows: Cytotoxicity against human HSC assessed as cell viability at 5 to 10 uM after 24 hrs by MTT assay.
A short description of data set [3]: Antioxidant activity assessed as hydrogen peroxide radical scavenging activity at 12.5 uM after 10 hrs by horseradish peroxidase assay. It counts as functional.
Data set [4] is described as follows: Antioxidant activity assessed as hydrogen peroxide radical scavenging activity at 25 uM after 10 hrs by horseradish peroxidase assay. It is filed as functional.
Data set [5] in a line: Antioxidant activity assessed as pyrogallol red dye bleaching-induced peroxynitrite scavenging activity up to 62.5 uM relative to ebselen. It counts as functional.
The nature of data set [6]: Antioxidant activity assessed as hydrogen peroxide radical scavenging activity at 20 to 100 uM after 10 hrs by horseradish peroxidase assay. It is filed as functional.
The target in data set [7] is Acetylcholinesterase (Homo sapiens, UniProt P22303). As to the kind of experiment: Inhibition of human AChE using acetylthiocholine chloride as substrate preincubated for 15 mins by Ellman's method.
Acetylcholinesterase (Homo sapiens, UniProt P22303), sequence (P22303 whole entry): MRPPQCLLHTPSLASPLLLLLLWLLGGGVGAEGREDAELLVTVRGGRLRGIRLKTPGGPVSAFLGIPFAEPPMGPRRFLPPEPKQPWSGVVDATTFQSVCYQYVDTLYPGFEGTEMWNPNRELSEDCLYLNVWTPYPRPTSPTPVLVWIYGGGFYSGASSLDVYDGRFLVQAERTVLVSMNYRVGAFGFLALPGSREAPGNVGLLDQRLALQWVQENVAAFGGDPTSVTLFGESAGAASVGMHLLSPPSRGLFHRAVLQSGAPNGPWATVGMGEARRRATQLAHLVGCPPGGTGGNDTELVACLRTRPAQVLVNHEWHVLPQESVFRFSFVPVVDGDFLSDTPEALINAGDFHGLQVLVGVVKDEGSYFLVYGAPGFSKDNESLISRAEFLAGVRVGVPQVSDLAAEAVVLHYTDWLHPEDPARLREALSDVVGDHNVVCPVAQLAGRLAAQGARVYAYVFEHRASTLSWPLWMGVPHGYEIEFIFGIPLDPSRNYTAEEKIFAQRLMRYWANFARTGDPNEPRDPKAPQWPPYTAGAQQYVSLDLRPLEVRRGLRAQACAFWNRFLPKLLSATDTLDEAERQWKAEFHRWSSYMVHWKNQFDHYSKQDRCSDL

Activity calls are given as the source filed them. The rule behind the calls is not given here.

A word on the IC50: it is the concentration needed to halve the response being measured. High values mean lower potency, low ones higher potency.

Acetylcholinesterase (Electrophorus electricus, UniProt O42275), sequence (O42275 whole entry): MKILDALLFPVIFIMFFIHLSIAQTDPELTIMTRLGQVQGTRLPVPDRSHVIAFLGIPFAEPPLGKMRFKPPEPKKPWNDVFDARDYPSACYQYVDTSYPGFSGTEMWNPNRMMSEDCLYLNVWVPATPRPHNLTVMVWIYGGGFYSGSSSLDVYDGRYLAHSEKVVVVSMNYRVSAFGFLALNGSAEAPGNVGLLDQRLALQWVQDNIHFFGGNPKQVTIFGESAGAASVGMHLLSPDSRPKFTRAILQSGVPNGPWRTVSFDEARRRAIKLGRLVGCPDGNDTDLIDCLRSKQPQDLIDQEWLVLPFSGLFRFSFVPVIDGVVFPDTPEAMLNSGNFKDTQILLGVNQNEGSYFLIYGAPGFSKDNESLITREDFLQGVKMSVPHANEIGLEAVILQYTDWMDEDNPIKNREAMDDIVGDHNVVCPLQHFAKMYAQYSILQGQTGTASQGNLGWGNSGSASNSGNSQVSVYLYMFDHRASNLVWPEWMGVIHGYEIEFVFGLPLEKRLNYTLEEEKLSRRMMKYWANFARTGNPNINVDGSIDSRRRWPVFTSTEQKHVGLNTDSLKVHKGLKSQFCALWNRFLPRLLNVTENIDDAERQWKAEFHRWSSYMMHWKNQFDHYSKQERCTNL
Cholinesterase, sequence (P81908 whole entry): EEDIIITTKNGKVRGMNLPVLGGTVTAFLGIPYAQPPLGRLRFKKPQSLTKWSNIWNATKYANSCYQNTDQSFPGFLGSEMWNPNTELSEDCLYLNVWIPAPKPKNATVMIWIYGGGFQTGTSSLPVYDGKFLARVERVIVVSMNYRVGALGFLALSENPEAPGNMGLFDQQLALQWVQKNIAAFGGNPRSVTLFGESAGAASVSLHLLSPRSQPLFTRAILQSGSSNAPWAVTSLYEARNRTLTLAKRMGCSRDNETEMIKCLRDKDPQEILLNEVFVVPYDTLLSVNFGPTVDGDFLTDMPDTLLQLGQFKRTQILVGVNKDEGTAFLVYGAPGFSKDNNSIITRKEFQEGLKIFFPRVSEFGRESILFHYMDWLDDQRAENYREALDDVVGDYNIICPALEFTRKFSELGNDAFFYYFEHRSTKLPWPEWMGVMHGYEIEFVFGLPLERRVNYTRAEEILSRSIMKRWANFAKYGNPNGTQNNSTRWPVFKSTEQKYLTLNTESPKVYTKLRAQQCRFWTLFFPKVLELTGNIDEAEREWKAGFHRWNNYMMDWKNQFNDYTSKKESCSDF

On to `O=c1c2ccccc2[se]n1CCCNc1c2c(nc3ccccc13)CCCC2`, for which the IC50 at Cholinesterase turned out to be 0.0285 µM; against Acetylcholinesterase [1] it was 0.423 µM.
Turning to `O=c1c2ccccc2[se]n1CCCCNc1c2c(nc3ccccc13)CCCC2`, the values for the half-inhibitory concentration (IC50) against Cholinesterase and against Acetylcholinesterase [1] were 0.00494 µM and 0.152 µM, respectively.
For the compound `COc1cc2[se]n(CCCCCCNc3c4c(nc5ccccc35)CCCC4)c(=O)c2cc1OC`, the Activity result is “Non-toxic” in data set [2] and 83.7% in data set [4]. The outcome in data set [3] and in data set [6] was Active. The Ratio in data set [5] is 1.26. For the same compound, the IC50 against Acetylcholinesterase [7] was determined as 0.0151 µM; on Cholinesterase it was 0.0028 µM; on Acetylcholinesterase [1] it was 0.00255 µM.
Regarding `O=c1c2ccccc2[se]n1CCCCCCNc1c2c(nc3ccccc13)CCCC2`, the result in data set [3] and in data set [6] was Active. In data set [4], the Activity worked out at 70%. The Ratio in data set [5] was found to be 1.17. The IC50 against Acetylcholinesterase [7] is 0.0195 µM; on Cholinesterase it was 0.00437 µM; against Acetylcholinesterase [1] it was 0.00632 µM.
With `c1ccc2c(NCCCCCCCNc3c4c(nc5ccccc35)CCCC4)c3c(nc2c1)CCCC3`, the IC50 at Cholinesterase came out at 0.00408 µM; at Acetylcholinesterase [1], 0.00017 µM.
As for `O=c1c2ccccc2[se]n1CCCCCNc1c2c(nc3ccccc13)CCCC2`, the IC50 was found to be 0.00452 µM on Cholinesterase and 0.0708 µM at Acetylcholinesterase [1].
For the compound `O=c1c2ccccc2[se]n1-c1ccccc1`, the result in data set [3] and in data set [6] was Active. Moreover, the Activity in data set [4] was found to be 89.7%.
`O=c1c2ccccc2[se]n1CCNc1c2c(nc3ccccc13)CCCC2`: the IC50 at Cholinesterase amounted to 0.0389 µM; at Acetylcholinesterase [1], 0.657 µM.
The corresponding values for `O=c1c2ccccc2[se]n1CCCCCCCNc1c2c(nc3ccccc13)CCCC2` are 0.014 µM and 0.0265 µM.
For `O=c1c2ccccc2[se]n1CCCCCCCCCNc1c2c(nc3ccccc13)CCCC2`, the half-maximal inhibitory concentration (IC50) at Cholinesterase came to 0.0258 µM; on Acetylcholinesterase [1] it was 0.032 µM.
For `O=c1c2ccccc2[se]n1CCCCCCCCNc1c2c(nc3ccccc13)CCCC2`, the concentration for half-maximal inhibition (IC50) against Cholinesterase amounted to 0.0166 µM; against Acetylcholinesterase [1], 0.0241 µM.
